# Columns and labels:
# RARα receptors = biological target: T1, RARα receptors (Homo sapiens, UniProt P10276); test: chimeric receptor transactivation assay, RARα; type: cell-based
# T1 sequence (P10276 183-417 limits assumed): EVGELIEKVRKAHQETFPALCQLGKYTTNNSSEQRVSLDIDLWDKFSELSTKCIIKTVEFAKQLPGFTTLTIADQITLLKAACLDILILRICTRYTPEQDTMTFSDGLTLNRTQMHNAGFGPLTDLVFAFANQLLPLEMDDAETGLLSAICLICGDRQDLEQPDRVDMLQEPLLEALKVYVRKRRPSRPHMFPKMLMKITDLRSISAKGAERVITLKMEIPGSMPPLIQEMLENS
# Description: For example, a chimeric receptor transactivation assay which tests for agonist-like activity in the RARα, RARβ, RARγ, RXRα receptor subtypes, and which is based on work published by Feigner P. L. and Holm M. (1989) Focus, 112 is described in detail in U.S. Pat. No. 5,455,265. The specification of U.S. Pat. No. 5,455,265 is hereby expressly incorporated by reference.
# The results obtained in this assay are expressed in EC50 numbers, as they are also in the chimeric receptor transactivation assay.
# T47-D cells = test: cell proliferation assay (BrdU incorporation), T47-D; type: cell-based, human
# Description: (§1) The SKBR-3 and T47-D cell cultures in which the assay procedures were performed are also well known and are available from sources well known in the art. Specifically, as is known, T-47D is an estrogen receptor positive (ER^+) human breast cancer cell line, and SK-BR-3 is an estrogen receptor negative (ER^−) human breast cancer cell line. The assay procedure which itself is well known in the art, involves determining incorporation of 5-bromo-2′-deoxyuridine (BrdU) into the cells. As is known, incorporation of less BrdU represents less cell proliferation (inhibition of cell proliferation), and this assay is accepted in the art as a measure of anti-proliferative or anti-tumor activity of the assayed agent or agents.
# (§2) The estrogen receptor-positive (ER^+) cell line T-47D and the ER^−-cell line SK-BR-3 were cultured in Dulbecco's modification of Eagle's medium (DMEM Gibco BRL, Gaithersburg, Md.) supplemented with 10% fetal bovine serum (HyClone, Logan, Utah), 2 mM L-glutamine and 1% antibiotics-antimycotics (Gibco BRL). Cell lines were obtained from the American Type Culture Collection (ATCC, Rockville, Md., HTB-133 and HTB-30 for T47-D and SKBR-3, respectively). Cells were cultured at 37° C. in a humidified atmosphere containing 5% CO2.
# (§3) Proliferation of cancer cell lines was determined using a commercial cell proliferation kit (Roche Diagnostics), essentially following the instructions of the manufacturer. Cells were seeded into 96-well tissue culture plates (Corning Incorporated, Corning, N.Y.) at a concentration of 3000 cells/well. After 24 hours, cells were treated with Compound 2 (AGN195183) and/or interferons (IFNs) or solvent alone. The appropriate concentrations of Compound 2 (AGN195183) used in this study were between 10^−11M and 10^−6M; IFNs concentrations were between 25 and 1000 Unit/ml. Culture media were changed every 72 hours. After 7days, 10 μl of 5-bromo-2′-deoxyuridine (BrdU) was added to each well. Incubation with BrdU was stopped 24 hours later by adding 100 μl of anti-BrdU antibody to each well. The amount of BrdU incorporated into the DNA of proliferating cells was assessed by measuring absorbance at 450 nm. Each experiment was performed in triplicate.
# (§4) The growth inhibition observed in the cell cultures as a result of treatment with a combination of Compound 2 (AGN195183) of the invention and the interferons (IFNs) was analyzed for synergistic and additive effects.
# (§5) Synergism was defined as: %A×% B>%AB
# (§6) Additivity was defined as: %A×%B=%AB
# (§7) where A and B are the effects of each individual agent and AB is the effect of the combination, in accordance with the teaching of Aapro et al., Cancer Chemother. Pharmacol., 10: 161 -166, 1983, and Marth et al., J. Natl. Cancer Inst., 77:1197-1202, 1986), both of which are expressly incorporated herein by reference.
# (§8) Referring now to the graphs of FIGS. 1 through 12, each of these represents the results obtained in the above described assays where SKBR-3 and T47-D cells, respectively, were treated with a combination of Compound 2 of the invention and human recombinant interferon (IFN) α, β, and γ, respectively. The graph of FIG. 13 illustrates the results of treatment of these two cell cultures only with Compound 2 of the invention, without the use of any other anti-tumor agent. In each of these graphs the incorporation of 5-bromo-2′-deoxyuridine (BrdU) is plotted on the Y (vertical) axis and varying concentration of Compound 2 of the invention or varying concentration of IFNα. IFNβ or of IFNγ, respectively is plotted on the X (horizontal) axis. The concentration of the interferons is expressed in international units, as is accepted in the art, whereas the molar concentration of Compound 2 is plotted on a logarithmic scale. […]
# SKBR-3 cells = test: cell proliferation assay (BrdU incorporation), SKBR-3; type: cell-based, human
# Description: as §1, §2, §3, §4, §5, §6, §7, §8
smiles,measurement,setting,value
"CC1(C)CCC(C)(C)c2c1cc(C(=O)Nc1cc(F)c(C(=O)O)c(F)c1)c(O)c2Cl [Compound 2, 2,6-Difluoro-4-[(3-hydroxy-4-chloro-5,5,8 8-tetramethyl-5,6,7,8-tetrahydronaphthalene-2-carbonyl) -amino]-benzoic acid]",EC50,RARα receptors,180 nM
same,efficiency,RARα receptors,75%
same,anti-proliferative effect of the combination (BrdU incorporation),"T47-D cells; Compound 2 100 nM, IFNα varied, FIG. 7",additive
same,anti-proliferative effect of the combination (BrdU incorporation),"T47-D cells; Compound 2 100 nM, IFNβ varied, FIG. 8",significantly synergistic
same,anti-proliferative effect of the combination (BrdU incorporation),"T47-D cells; Compound 2 100 nM, IFNβ varied, FIG. 8, listed as AGN 195183",synergism
same,anti-proliferative effect of the combination (BrdU incorporation),"T47-D cells; Compound 2 100 nM, IFNγ varied, FIG. 9",significantly synergistic
same,anti-proliferative effect of the combination (BrdU incorporation),"T47-D cells; Compound 2 100 nM, IFNγ varied, FIG. 9, listed as AGN 195183",synergism
same,anti-proliferative effect of the combination (BrdU incorporation),"T47-D cells; IFNα 100 U/ml, Compound 2 varied, FIG. 10",not very effective and merely additive
same,anti-proliferative effect of the combination (BrdU incorporation),"T47-D cells; IFNβ 100 U/ml, Compound 2 varied, FIG. 11",synergistic inhibition
same,anti-proliferative effect of the combination (BrdU incorporation),"T47-D cells; IFNβ 100 U/ml, Compound 2 varied, FIG. 11, listed as AGN 195183",synergism
same,anti-proliferative effect of the combination (BrdU incorporation),"T47-D cells; IFNγ 100 U/ml, Compound 2 varied, FIG. 12","synergistic inhibition was observed, in the cotreatment with IFNγ only at higher concentrations of Compound 2"
same,anti-proliferative effect of the combination (BrdU incorporation),"T47-D cells; IFNγ 100 U/ml, Compound 2 varied, FIG. 12, listed as AGN 195183",synergism
same,anti-proliferative effect of the combination (BrdU incorporation),"SKBR-3 cells; Compound 2 10 nM, IFNα varied, FIG. 1",synergistic effect
same,anti-proliferative effect of the combination (BrdU incorporation),"SKBR-3 cells; Compound 2 10 nM, IFNα varied, FIG. 1, listed as AGN 195183",synergism
same,anti-proliferative effect of the combination (BrdU incorporation),"SKBR-3 cells; Compound 2 10 nM, IFNβ varied, FIG. 2",significant synergistic effect
same,anti-proliferative effect of the combination (BrdU incorporation),"SKBR-3 cells; Compound 2 10 nM, IFNβ varied, FIG. 2, listed as AGN 195183",synergism
same,anti-proliferative effect of the combination (BrdU incorporation),"SKBR-3 cells; Compound 2 10 nM, IFNγ varied, FIG. 3",significant synergistic effect
same,anti-proliferative effect of the combination (BrdU incorporation),"SKBR-3 cells; Compound 2 10 nM, IFNγ varied, FIG. 3, listed as AGN 195183",synergism
same,anti-proliferative effect of the combination (BrdU incorporation),"SKBR-3 cells; IFNα 100 U/ml, Compound 2 varied, FIG. 4",significant synergistic effect
same,anti-proliferative effect of the combination (BrdU incorporation),"SKBR-3 cells; IFNα 100 U/ml, Compound 2 varied, FIG. 4, listed as AGN 195183",synergism
same,anti-proliferative effect of the combination (BrdU incorporation),"SKBR-3 cells; IFNβ 100 U/ml, Compound 2 varied, FIG. 5",significant synergistic effect
same,anti-proliferative effect of the combination (BrdU incorporation),"SKBR-3 cells; IFNβ 100 U/ml, Compound 2 varied, FIG. 5, listed as AGN 195183",synergism
same,anti-proliferative effect of the combination (BrdU incorporation),"SKBR-3 cells; IFNγ 100 U/ml, Compound 2 varied, FIG. 6",significant synergistic effect
same,anti-proliferative effect of the combination (BrdU incorporation),"SKBR-3 cells; IFNγ 100 U/ml, Compound 2 varied, FIG. 6, listed as AGN 195183",synergism

# Source: patent US6387950B2, “Treatment of tumors with RARα selective retinoid compounds in combination with other anti-tumor agents” (Allergan Sales, Inc., priority 2000, dated 2002)
